Assay results: US6335356B1, “Method of treating a patient by parenteral administration of a lipophilic compound” (Sugen, Inc., priority 1994, dated 2002)
Converted amounts (≈) assume the structure as drawn.

Legend:
[1] = Solubility of leflunomide in vehicles (POLYSORBATE 80:alcohol ratios, alcohol, VPD/PBTE); type: physicochemical
Protocol: (§1) Leflunomide has a low solubility in standard formulations used to dissolve compounds for parenteral administration. For example, the solubility of leflunomide in VPD (126 mg alcohol, 40 mg POLYSORBATE 80®, 3 mg citric acid, 15 mg benzyl alcohol, and 325 mg PEG MW300; also referred to as PBTE) is about 60 mg/ml. Parenterally administered VPD formulations should be diluted at least 1:2 with a pharmaceutically acceptable aqueous solution to avoid toxic effects. Such dilution can result in precipitation of lipophilic compounds. For leflunomide, a concentration in VPD greater than about 5 mg/ml precipitates when diluted 1:2 with a pharmaceutically aqueous solution such as WFI.
Increasing the solubility of leflunomide allows more leflunomide to be administered to a patient via parenteral administration. The formulations described by the present invention can use alcohol and a surfactant to solubilize leflunomide. Leflunomide is soluble in alcohol at 100 mg/ml. The surfactant is added to allow for the dilution into a pharmaceutically acceptable aqueous solution prior to injection.
Leflunomide was solubilized in varying ratios of POLYSORBATE 80® and alcohol. The leflunomide solutions were then tested for the ability to dilute with aqueous solutions.
As noted above, the stability of leflunomide in solution is pH dependent. To stabilize leflunomide varying amounts of citric acid (1 to 20 mg/ml) were added to both 33%T:66%E and 66%T:33%E. The citric acid decreased the apparent pH of the solutions.

[2] = Physical stability (precipitation) of leflunomide solutions over time; type: physicochemical
[3] = Ability of leflunomide solutions to be diluted with aqueous solutions; type: physicochemical; conditions: for Solubility: organic solvent or mixture, read-out: concentration soluble and allowing dilution with aqueous solutions
Protocol: as §1, with “WFI. Leflunomide was solubilized in varying ratios of POLYSORBATE 80® and alcohol. The leflunomide solutions were then tested for the ability to dilute with aqueous solutions.” for “WFI.”

[4] = type: physicochemical
Excerpt: The pH of the formulations can be adjusted with a pharmaceutically acceptable excipient. For example, the apparent pH of the POLYSORBATE 80®:alcohol formulations can be adjusted with citric acid.

solubility after addition of citric acid ([1]; 33%:66%E with citric acid 1 to 20 mg/ml): no longer soluble to the same extent
Solubility ([1]; VPD (PBTE) parenteral vehicle, organic solvent or mixture, VPD (126 mg alcohol, 40 mg POLYSORBATE 80, 3 mg citric acid, 15 mg benzyl alcohol, 325 mg PEG MW300; also PBTE), read-out: solubility in VPD): ~60 mg/mL
Solubility ([1]; alcohol, organic solvent or mixture, read-out: soluble in alcohol at): 100 mg/mL
Solubility ([1]; vehicle 33%T:66%E (POLYSORBATE 80:alcohol v/v), 100 mg/ml): Insoluble
Solubility ([1]; vehicle 33%T:66%E, 25 mg/ml): Soluble
Solubility ([1]; vehicle 33%T:66%E, 50 mg/ml): Soluble
Solubility ([1]; vehicle 50%T:50%E, 50 mg/ml): Soluble
Solubility ([1]; vehicle 50%T:50%E, 55 mg/ml): Soluble
Solubility ([1]; vehicle 50%T:50%E, 60 mg/ml): Soluble
Solubility ([1]; vehicle 50%T:50%E, 75 mg/ml): Soluble
Solubility ([1]; vehicle 50%T:50%E, 100 mg/ml): Soluble
Solubility ([1]; vehicle 66%T:33%E, 50 mg/ml): Soluble
Solubility ([1]; vehicle 66%T:33%E, 100 mg/ml): Insoluble
Solubility ([1]; vehicle PBTE6C:WFI, 2.5 mg/ml): Soluble
Solubility ([1]; vehicle alcohol, 100 mg/ml): Soluble
remaining in solution ([2]; 20 mg/ml in 33%T:66%E with citric acid, 2-8° C. for 7 days): precipitate started to occur
remaining in solution ([2]; 20 mg/ml in 33%T:66%E with either 4 or 6 mg/ml citric acid, 4° C.): remains in solution
remaining in solution ([2]; 20 mg/ml in 33%T:66%E with either 4 or 6 mg/ml citric acid, room temperature): remains in solution
remaining in solution with time ([2]; 25 mg/ml in 33%T:66%E, diluted with aqueous solutions, room temperature (22° C. to 26° C.), over 3 days): falls out of solution
Solubility ([3]; POLYSORBATE 80:alcohol vehicle 33%T:66%E, in 33%T:66%E): 25 mg/mL (≈ 92.5 mM)
Solubility ([3]; POLYSORBATE 80:alcohol vehicle 66%T:33%E, in 66%T:33%E): 50 mg/mL (≈ 185 mM)
concentration in VPD that precipitates when diluted 1:2 ([3]; VPD diluted 1:2 with pharmaceutically aqueous solution such as WFI): greater than 5 mg/ml
Structure (SMILES): Cc1oncc1C(=O)Nc1ccc(C(F)(F)F)cc1 [Leflunomide, 5-methylisoxazole-4 carboxylic acid-(4-trifluromethyl)-anilide]
stability in solution [4]: breakdown to N-(4-trifluoromethylphenyl)-2-cyano-3-hydroxycrotonamide
